Consider 35 molecules from patent US5487990A (The General Hospital Corporation, priority 1992, dated 1996).

SMILES strings stand for the structures. “And” between values parts separate entries of the source, which are not always exact repeats. Equal values may be shown once. “Also recorded” adds a separate entry of the source. Read-outs that look alike come from different tables or passages of the source.

The target of experiment [1] is T1, Acetyl-CoA Hydrolase from S. cerevisiae (Saccharomyces cerevisiae, UniProt P32316).
T1 sequence (P32316 1-526): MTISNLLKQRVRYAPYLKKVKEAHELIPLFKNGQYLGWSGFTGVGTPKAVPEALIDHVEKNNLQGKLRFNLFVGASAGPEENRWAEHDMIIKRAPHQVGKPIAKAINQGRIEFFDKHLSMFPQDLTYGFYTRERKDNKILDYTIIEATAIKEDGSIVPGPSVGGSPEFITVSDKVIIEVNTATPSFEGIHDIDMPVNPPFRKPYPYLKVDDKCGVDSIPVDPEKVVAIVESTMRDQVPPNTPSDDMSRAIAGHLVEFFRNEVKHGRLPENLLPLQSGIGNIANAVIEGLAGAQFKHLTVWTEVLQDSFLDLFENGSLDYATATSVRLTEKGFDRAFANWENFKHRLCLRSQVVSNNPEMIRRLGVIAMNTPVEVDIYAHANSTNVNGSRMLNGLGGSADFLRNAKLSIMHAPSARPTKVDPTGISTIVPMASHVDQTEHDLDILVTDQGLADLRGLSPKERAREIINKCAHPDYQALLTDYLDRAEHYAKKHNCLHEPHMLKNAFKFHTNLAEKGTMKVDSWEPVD
The experiment in a line: biochemical. To be noted: for remaining activity at 10000 µM / remaining activity at 500 µM / remaining activity at 5000 µM / remaining activity at 1000 µM: read-out: Enzyme Activity (%). In kind it is biochemical.

The target in experiment [2] is T1, Acetyl-CoA Hydrolase from S. cerevisiae. The experiment in a line: biochemical. The conditions noted are these: for remaining activity at 100 µM / remaining activity at 1000 µM / remaining activity at 10000 µM / remaining activity at 5000 µM: pH 7.4, read-out: Enzyme Activity (%); for Enzyme Activity (%): 100 mM potassium phosphate, pH 7.4, None = 100.
Procedure: The assay mixture was incubated at 30° C. for 0.30 s, 1 min, 2 min, 3 min, 4 min, and 5 min. The reaction was stopped by adding 20 μl of 10 M acetic acid. The sample was evaporated by N2 stream at 30° C. to dryness in a fume hood, dissolved in 100 μl H2 O, and transferred to a scintillation vial containing 10 ml Ready-Solv EP scintillation cocktail. The sample tube was washed twice with 100 μl H2 O, each wash was transferred to the scintillation vial, and the radioactivity was determined by scintillation counting for 1 min.
nucleotides and divalent cations in 100 mM potassium phosphate, pH 7.4.
The enzyme activity was determined under standard radioactive assay
conditions using ACTH (1-24) (N = 3), as described in the Examples.
acylCoA in 100 mM phosphate buffer, pH 7.4.
Experiment [3] has as its target T2, soluble cytosolic acetyl-CoA hydrolase found in rat liver (Rattus norvegicus, UniProt Q99NB7).
T2 construct: host or cells: rat liver cytoplasm (Prass et al. 1980; Soling et al. 1985)
The conditions noted are these: rat liver cytoplasmic, cold-labile enzyme; cited from earlier work.

Experiment [4] deals with mitochondrial acetyl-CoA hydrolase. The conditions noted are these: cited from earlier work.
Experiment [5] concerns the target T1, Acetyl-CoA Hydrolase from S. cerevisiae. In words: Substrate specificity, colorimetric assay (DNTB, A412). It is filed as biochemical. To be noted: read-out: Relative Activity (%).

T2 sequence (Q99NB7 whole entry): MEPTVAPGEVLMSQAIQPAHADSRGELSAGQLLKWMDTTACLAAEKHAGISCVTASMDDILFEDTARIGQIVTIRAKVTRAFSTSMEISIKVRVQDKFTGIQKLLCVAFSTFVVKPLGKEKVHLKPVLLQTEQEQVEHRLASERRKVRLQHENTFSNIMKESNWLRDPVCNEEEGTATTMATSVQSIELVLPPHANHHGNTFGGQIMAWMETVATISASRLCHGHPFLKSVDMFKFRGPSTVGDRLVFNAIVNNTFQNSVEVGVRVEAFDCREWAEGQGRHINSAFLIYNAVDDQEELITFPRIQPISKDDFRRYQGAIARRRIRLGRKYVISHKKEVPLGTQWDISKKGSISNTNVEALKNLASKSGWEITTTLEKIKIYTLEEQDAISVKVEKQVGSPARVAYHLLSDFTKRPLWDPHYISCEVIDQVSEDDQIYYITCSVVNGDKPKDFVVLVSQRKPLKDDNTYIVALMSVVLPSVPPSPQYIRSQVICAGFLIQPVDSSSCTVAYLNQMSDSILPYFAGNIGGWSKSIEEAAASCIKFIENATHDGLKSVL

Consider `O[C@@H](CS)[C@@H](O)CS` (relative stereo) [DTT], for which the “inactivation by chemical modification (in words)” value in experiment [1] is reported as “did not affect enzyme activity”. In addition, the remaining activity at 10000 µM in experiment [1] (0.25 h) was determined as 104%.

`OCCS` [2-mercaptoethanol]: the “inactivation by chemical modification (in words)” value in experiment [1] is recorded as “did not affect enzyme activity”. The remaining activity at 10000 µM in experiment [1] (0.25 h) is 101%.

As for `Nc1ncnc2c1ncn2[C@@H]1O[C@H](COP(=O)(O)OP(=O)(O)O)[C@@H](O)[C@H]1O` [ADP], in experiment [2], the “effect on yeast enzyme activity (in words)” value is recorded as “not affected”, the remaining activity at 100 µM is 98%, the remaining activity at 1000 µM worked out at 94% and the remaining activity at 10000 µM was determined as 91%. For the same molecule, the “effect on enzyme (in words)” value in experiment [3] is recorded as “inhibited”. For the same molecule, the “effect on enzyme (in words)” value in experiment [4] was “not inhibited; also recorded: not affected”.

As for `Nc1ncnc2c1ncn2[C@@H]1O[C@H](COP(=O)(O)O)[C@@H](O)[C@H]1O` [AMP], in experiment [2], the remaining activity at 100 µM amounted to 96%, the remaining activity at 1000 µM amounted to 89% and the remaining activity at 10000 µM amounted to 81%.

As to `Nc1ncnc2c1ncn2[C@@H]1O[C@H](COP(=O)(O)OP(=O)(O)OP(=O)(O)O)[C@@H](O)[C@H]1O` [ATP], in experiment [2], the “effect on yeast enzyme activity (in words)” value is recorded as “not affected”, the remaining activity at 100 µM amounted to 101%, the remaining activity at 1000 µM is 99% and the remaining activity at 10000 µM turned out to be 96%. Further, in experiment [4], the “effect on enzyme (in words)” value is reported as “not activated; also recorded: not affected”.

Turning to `CC(=O)CC(=O)SCCNC(=O)CCNC(=O)[C@H](O)C(C)(C)COP(=O)(O)OP(=O)(O)OC[C@H]1O[C@@H](n2cnc3c(N)ncnc32)[C@H](O)[C@@H]1OP(=O)(O)O` [Acetoacetyl-CoA], in experiment [2], the remaining activity at 100 µM is 98%, the remaining activity at 1000 µM amounted to 92% and the remaining activity at 5000 µM was found to be 90%. For the same molecule, the activity at 250 µM in experiment [5] worked out at 5%.

On to `CCCC(=O)SCCNC(=O)CCNC(=O)[C@H](O)C(C)(C)COP(=O)(O)OP(=O)(O)OC[C@H]1O[C@@H](n2cnc3c(N)ncnc32)[C@H](O)[C@@H]1OP(=O)(O)O` [Butyryl-CoA], for which, in experiment [2], the remaining activity at 100 µM came to 95%, the remaining activity at 1000 µM came out at 86% and the remaining activity at 5000 µM was found to be 62%. In experiment [5], the activity at 250 µM came to 4%.

With `[Ca+2].[Cl-].[Cl-]` [CaCl2], the results for the “Enzyme Activity (%)” value in experiment [2] (addition 1 mM) and in experiment [2] (addition 10 mM) were 97% and 84%, respectively.

As to `[Cl][Cd][Cl]` [CdCl2], the figures for the “Enzyme Activity (%)” value in experiment [2] (addition 1 mM) and in experiment [2] (addition 10 mM) were 91% and 48%, respectively.

Take `[Cl-].[Cl-].[Co+2]` [CoCl2]: the “Enzyme Activity (%)” value was found to be 86% in experiment [2] (addition 1 mM) and 51% in experiment [2] (addition 10 mM).

In the case of `O=S(=O)([O-])[O-].[Cu+2]` [CuSO4], the “Enzyme Activity (%)” value is recorded as 94% in experiment [2] (addition 1 mM) and 89% in experiment [2] (addition 10 mM).

On to `CCOC(=O)OC(=O)OCC` [DEPC, diethyl pyrocarbonate], for which the “inactivation by chemical modification (in words)” value in experiment [1] is listed as “nearly complete inactivation; also recorded: inactivated”. Moreover, in experiment [1] (0.25 h), the remaining activity at 500 µM stood at 19% and the remaining activity at 5000 µM was determined as 3%.

In the case of `O=S(=O)([O-])[O-].[Fe+2]` [FeSO4], the results for the “Enzyme Activity (%)” value in experiment [2] (addition 1 mM) and in experiment [2] (addition 10 mM) were 98% and 88%, respectively.

With `Nc1nc2c(ncn2[C@@H]2O[C@H](COP(=O)(O)OP(=O)(O)O)[C@@H](O)[C@H]2O)c(=O)[nH]1` [GDP], the results for the “effect on enzyme (in words)” value in experiment [3] and in experiment [4] were “inhibited” and “not inhibited”, respectively.

Turning to `C[S+](C)Cc1cc([N+](=O)[O-])ccc1O.[Br-]` [HNBS(CH3)2 --Br, dimethyl-(2-hydroxy-5-nitrobenzyl)sulfonium bromide], the “inactivation by chemical modification (in words)” value in experiment [1] is given as “partially inactivated”. In addition, in experiment [1] (0.25 h), the remaining activity at 1000 µM was 84% and the remaining activity at 10000 µM was found to be 71%.

`O=C(O)CI` [IAA, iodoacetic acid]: in experiment [1] (0.25 h), the remaining activity at 1000 µM is 99% and the remaining activity at 10000 µM amounted to 89%.

Take `NC(=O)CI` [IAM, iodoacetamide]: in experiment [1], the “effect on enzyme activity (in words)” value is on record as “no effect; also recorded: partially inactivated”. In experiment [1] (0.25 h), the remaining activity at 1000 µM was 97% and the remaining activity at 10000 µM was found to be 85%.

As to `CC(C)(COP(=O)(O)OP(=O)(O)OC[C@H]1O[C@@H](n2cnc3c(N)ncnc32)[C@H](O)[C@@H]1OP(=O)(O)O)[C@@H](O)C(=O)NCCC(=O)NCCSC(=O)CC(=O)O` [Malonyl-CoA], in experiment [2], the remaining activity at 100 µM was determined as 93%, the remaining activity at 1000 µM amounted to 83% and the remaining activity at 5000 µM is 52%. The activity at 250 µM in experiment [5] was 1%.

Regarding `[Cl-].[Cl-].[Mg+2]` [MgCl2], the “Enzyme Activity (%)” value in experiment [2] (addition 1 mM) was 95%; in experiment [2] (addition 10 mM) it was 72%.

As for `O=S(=O)([O-])[O-].[Mg+2]` [MgSO4], the entries for the “Enzyme Activity (%)” value in experiment [2] (addition 1 mM) and in experiment [2] (addition 10 mM) were 98% and 75%, respectively.

`[Cl][Mn][Cl]` [MnCl2]: the “Enzyme Activity (%)” value in experiment [2] (addition 1 mM) turned out to be 84%; in experiment [2] (addition 10 mM), 64%.

For `CCCCCCCCCCCCCC(=O)SCCNC(=O)CCNC(=O)[C@H](O)C(C)(C)COP(=O)(O)OP(=O)(O)OC[C@H]1O[C@@H](n2cnc3c(N)ncnc32)[C@H](O)[C@@H]1OP(=O)(O)O` [Myristoyl-CoA], in experiment [2], the remaining activity at 100 µM was 93%, the remaining activity at 1000 µM was determined as 83% and the remaining activity at 5000 µM is 52%. Moreover, the activity at 250 µM in experiment [5] worked out at 3%.

As for `CC(=O)n1ccnc1` [N-acetylimidazole], the “effect on enzyme activity (in words)” value in experiment [1] was “caused inactivation”. Moreover, in experiment [1] (0.25 h), the remaining activity at 1000 µM came out at 101% and the remaining activity at 10000 µM came to 67%.

Consider `O=C1CCC(=O)N1Br` [NBS, N-bromosuccinimide], for which the “inactivation of the enzyme (in words)” value in experiment [1] is recorded as “complete inactivation”. In experiment [1] (0.25 h), the remaining activity at 500 µM was found to be 30% and the remaining activity at 5000 µM is 2%. Moreover, the inhibition at 500 µM in experiment [1] (0.25 h, read-out: inactivation of the enzyme) turned out to be 70%.

Regarding `CCN1C(=O)C=CC1=O` [NEM, N-ethylmaleimide], in experiment [1] (0.25 h), the remaining activity at 1000 µM is 94% and the remaining activity at 10000 µM turned out to be 52%.

On to `CCC(=O)SCCNC(=O)CCNC(=O)[C@H](O)C(C)(C)COP(=O)(O)OP(=O)(O)OC[C@H]1O[C@@H](n2cnc3c(N)ncnc32)[C@H](O)[C@@H]1OP(=O)(O)O` [Propionyl-CoA], for which, in experiment [2], the remaining activity at 100 µM came to 92%, the remaining activity at 1000 µM was 89% and the remaining activity at 5000 µM came to 72%. Also, the activity at 250 µM in experiment [5] was determined as 9%.

For `O=C1CCC(=O)O1` [Succinic anhydride], in experiment [1], the “effect on enzyme activity (in words)” value was “no effect; also recorded: partial inactivation”. Moreover, in experiment [1] (0.25 h), the remaining activity at 1000 µM is 95% and the remaining activity at 10000 µM is 79%.

`CC(C)(COP(=O)(O)OP(=O)(O)OC[C@H]1O[C@@H](n2cnc3c(N)ncnc32)[C@H](O)[C@@H]1OP(=O)(O)O)[C@@H](O)C(=O)NCCC(=O)NCCSC(=O)CCC(=O)O` [Succinyl-CoA]: in experiment [2], the remaining activity at 100 µM stood at 92%, the remaining activity at 1000 µM was 79% and the remaining activity at 5000 µM turned out to be 56%. Further, in experiment [5], the activity at 250 µM was 8%.

On to `O=S(=O)([O-])[O-].[Zn+2]` [ZnSO4], for which the entries for the “Enzyme Activity (%)” value in experiment [2] (addition 1 mM) and in experiment [2] (addition 10 mM) were 88% and 25%, respectively.

In the case of `[Zn+2]` [Zn^2+], in experiment [2] (concentration not given), the “effect on yeast enzyme activity (in words)” value is given as “most potent inhibitor”.

Take `NO` [hydroxylamine]: the “original enzyme activity recovered” value in experiment [1] (depc-inactivated acetyl-coa hydrolase, 480 min, 250000 µM) is “≈ 55%”.

For `O=C(O)c1cc[c]([Hg][Cl])cc1` [pCMB, p-chloromercuribenzoate], the “Enzyme Activity (%)” value in experiment [1] was 102% and 88%.

As for `NC(=O)C1=CN([C@@H]2O[C@H](COP(=O)(O)OP(=O)(O)OC[C@H]3O[C@@H](n4cnc5c(N)ncnc54)[C@H](O)[C@@H]3O)[C@@H](O)[C@H]2O)C=CC1` [βNADH], in experiment [2], the “effect on enzyme activity (in words)” value is “appreciably decreased enzyme activity”, the “effect on yeast enzyme activity (in words)” value was “inhibited”, the remaining activity at 100 µM amounted to 83% and the remaining activity at 1000 µM amounted to 69%. For the same molecule, the remaining activity at 10000 µM in experiment [2] is 46%. Besides, in experiment [4], the “effect on enzyme (in words)” value is reported as “inhibited”.

For the molecule `NC(=O)C1=CN([C@@H]2O[C@H](COP(=O)(O)OP(=O)(O)OC[C@H]3O[C@@H](n4cnc5c(N)ncnc54)[C@H](OP(=O)(O)O)[C@@H]3O)[C@@H](O)[C@H]2O)C=CC1` [βNADPH], in experiment [2], the remaining activity at 100 µM worked out at 99%, the remaining activity at 1000 µM came out at 98% and the remaining activity at 10000 µM is 96%.

Take `NC(=O)c1ccc[n+]([C@@H]2O[C@H](COP(=O)([O-])OP(=O)(O)OC[C@H]3O[C@@H](n4cnc5c(N)ncnc54)[C@H](O)[C@@H]3O)[C@@H](O)[C@H]2O)c1` [βNAD]: in experiment [2], the remaining activity at 100 µM amounted to 100%, the remaining activity at 1000 µM stood at 98% and the remaining activity at 10000 µM came to 95%.
